“And” between values parts separate entries of the source, which are not always exact repeats. Equal values may be shown once. Read-outs that look alike come from different tables or passages of the source.
Experiments:
Assay in all cases: Inside-out patch-clamp inhibition of CFTR current by Inh-172
Format in all cases: cell-based
[1] = target: T1, M348K-CFTR (Homo sapiens, UniProt P13569, M348K)
T1 construct: expressed in transfected cells; host or cells: CHO cells, pcDNA plasmid
Protocol: (§1) CHO cells were grown at 37 °C in Dulbecco’s modified Eagle’s medium supplemented with 10% (vol/vol) fetal bovine serum (Sigma-Aldrich, St. Louis, MO). pcDNA plasmids carrying the desired CFTR construct were transfected to CHO cells using PolyFect transfection reagent (Qiagen, Hilden, Germany) together with green fluorescence protein (GFP) cDNA (pEGFP-C3, Takara Bio, Shiga, Japan) that helps identify expression of CFTR. Cells were first incubated with the transfection reagents at 37 °C for 6-12 hours on sterile glass chips in 35-mm tissue culture dishes before transferred to 27 °C for incubation for 2–7 days. Primers for mutations were ordered from Integrated DNA Technologies (Coralville, IA) and were summarized in Supplementary Data. All CFTR mutants were prepared with QuikChange XL kit (Agilent, Santa Clara, CA) and sequenced at the DNA Core facility at University of Missouri-Columbia.
(§2) Patch-clamp pipettes were made from borosilicate capillary glass using a two-stage vertical puller (PP-81; Narishige, Amityville, NY). The pipette tips were fire polished with a homemade microforge to yield a pipette resistance of 2–5 MΩ when filled with a pipette solution containing (in mM): 140 NMDG-Cl (N-methyl-D-glucamine-chloride), 5 CaCl2, 2 MgCl2, and 10 HEPES, pH 7.4. For recordings, transfected cells on glass chips were transferred into a continuously perfused chamber on the stage of an inverted microscope (IX51; Olympus, Tokyo, Japan) with the perfusing solution containing (in mM): 150 NMDG-Cl, 2 MgCl2, 10 EGTA, 8 Tris, and 10 HEPES, pH 7.4. The membrane patch was excised to an inside-out configuration with a seal resistance >40 GΩ. CFTR currents were recorded with an amplifier (EPC9; HEKA, Holliston, MA), filtered through an eight-pole Bessel filter (LPF-8; Warner Instruments, Hamden, CT) at 100 Hz and digitized to a computer at a sampling rate of 500 Hz with Pulse software (version 8.53; HEKA). The membrane potential was held at −30 mV. Solution exchange was achieved by a fast solution change system (SF-77B; Warner Instruments). Inh-172 was obtained from the CFTR Chemical Compound Program supported by the Cystic Fibrosis Foundation. All experiments were performed at room temperature.
(§3) The steady state mean currents were measured in the Igor Pro software (version 8.0; WaveMetrics). The mean baseline currents were subtracted from the steady state mean currents before the data were used to determine the degrees of inhibition. The degrees of inhibition by CFTR inhibitor 172 were calculated based on the equation:1 %inhibition=1−IInh−172/I0X100% where I0 and Iinh−172 represent uninhibited and inhibited currents, respectively. The IC50 and Hill coefficients were obtained by fitting percent inhibition as a function of [Inh-172] with the Hill equation:2 %inhibition=base+(max−base)/1+xhalf/x^rate where max and base represent the […] percent inhibition by Inh-172, x represents the concentration of Inh-172, and the rate is the Hill coefficient. The estimated IC50 (xhalf) and Hill coefficients are listed in Table 1 as mean ± standard deviation. Each patch-clamp recording was made from a separate cell.

[2] = target: T2, T1142A-CFTR (Homo sapiens, UniProt P13569, T1142A)
T2 construct: expressed in transfected cells; host or cells: CHO cells, pcDNA plasmid
T2 sequence (P13569 whole entry T1142A): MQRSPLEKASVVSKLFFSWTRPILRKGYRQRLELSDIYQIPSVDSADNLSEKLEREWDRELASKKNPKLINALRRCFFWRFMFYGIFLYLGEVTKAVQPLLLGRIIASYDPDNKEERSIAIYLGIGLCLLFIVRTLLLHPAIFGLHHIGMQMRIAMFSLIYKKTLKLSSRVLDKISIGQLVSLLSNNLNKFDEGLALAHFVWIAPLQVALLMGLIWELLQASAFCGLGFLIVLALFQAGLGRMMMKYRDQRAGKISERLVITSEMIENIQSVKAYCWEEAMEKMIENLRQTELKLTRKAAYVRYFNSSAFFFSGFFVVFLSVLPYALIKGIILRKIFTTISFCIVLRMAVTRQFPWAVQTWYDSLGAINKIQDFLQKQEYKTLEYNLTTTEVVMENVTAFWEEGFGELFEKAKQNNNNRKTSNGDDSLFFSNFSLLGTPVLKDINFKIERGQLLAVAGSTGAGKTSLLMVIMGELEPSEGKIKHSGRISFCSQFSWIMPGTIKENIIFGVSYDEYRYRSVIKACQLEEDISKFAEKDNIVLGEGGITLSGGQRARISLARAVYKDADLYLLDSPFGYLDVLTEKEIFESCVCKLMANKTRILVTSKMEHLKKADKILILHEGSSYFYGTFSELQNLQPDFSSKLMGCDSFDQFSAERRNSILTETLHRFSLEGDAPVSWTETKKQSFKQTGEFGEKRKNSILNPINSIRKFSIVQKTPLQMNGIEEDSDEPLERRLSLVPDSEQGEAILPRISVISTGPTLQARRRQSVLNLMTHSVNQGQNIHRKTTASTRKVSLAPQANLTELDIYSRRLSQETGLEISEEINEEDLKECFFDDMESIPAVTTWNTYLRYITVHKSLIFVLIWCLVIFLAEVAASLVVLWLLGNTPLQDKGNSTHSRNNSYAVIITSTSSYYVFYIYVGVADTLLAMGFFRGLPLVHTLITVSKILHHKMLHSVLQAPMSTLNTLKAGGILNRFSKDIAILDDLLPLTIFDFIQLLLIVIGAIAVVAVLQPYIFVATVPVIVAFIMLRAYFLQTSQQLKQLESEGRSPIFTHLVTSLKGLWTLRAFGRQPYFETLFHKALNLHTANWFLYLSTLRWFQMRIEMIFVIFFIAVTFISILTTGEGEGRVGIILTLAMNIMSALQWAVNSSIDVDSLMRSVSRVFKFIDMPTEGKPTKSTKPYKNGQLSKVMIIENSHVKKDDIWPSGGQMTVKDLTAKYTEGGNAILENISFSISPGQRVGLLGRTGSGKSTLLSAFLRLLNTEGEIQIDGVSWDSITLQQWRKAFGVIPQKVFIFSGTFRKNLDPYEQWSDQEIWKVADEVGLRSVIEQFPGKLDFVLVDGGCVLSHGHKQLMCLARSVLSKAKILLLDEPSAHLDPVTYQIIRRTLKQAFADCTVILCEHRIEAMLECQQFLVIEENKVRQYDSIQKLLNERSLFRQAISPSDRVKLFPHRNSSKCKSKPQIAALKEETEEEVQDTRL
Protocol: as §1, §2, §3

[3] = target: T3, W1145Y-CFTR (Homo sapiens, UniProt P13569, W1145Y); details: for inhibition at 0.5 µM: 500 nM Inh-172; for inhibition at 5 µM: 5000 nM Inh-172; for inhibition at 10 µM: 10000 nM Inh-172
T3 construct: expressed in transfected cells; host or cells: CHO cells, pcDNA plasmid
T3 sequence (P13569 whole entry W1145Y): as the sequence (P13569 whole entry T1142A) above, with A1142T, W1145Y counted along it
Protocol: as §1, §2, §3

[4] = target: T4, human WT-CFTR (Homo sapiens, UniProt P13569); details: for inhibition at 0.05 µM: 50 nM Inh-172; for inhibition at 0.1 µM: 100 nM Inh-172; for inhibition at 1 µM: 1000 nM Inh-172
T4 construct: the native wild-type CFTR construct without any deletion or mutation; expressed in transfected cells; host or cells: CHO cells, pcDNA plasmid
T4 sequence (P13569 whole entry): as the sequence (P13569 whole entry T1142A) above, with A1142T counted along it
Protocol: as §1, §2, §3

[5] = 100 nM Inh-172, read-out: percent inhibition of current, Mean
[6] = 500 nM Inh-172, read-out: percent inhibition of current, Mean
[7] = 1000 nM Inh-172, read-out: percent inhibition of current, Mean
[8] = 5000 nM Inh-172, read-out: percent inhibition of current, Mean
[9] = 5000 nM Inh-172, read-out: percent inhibition of current, individual cell
[10] = 10000 nM Inh-172, read-out: percent inhibition of current, Mean
[11] = 10000 nM Inh-172, read-out: percent inhibition of current, individual cell
[12] = read-out: percent inhibition of current, Mean
[13] = read-out: percent inhibition of current, individual cell

T1 sequence (P13569 whole entry M348K): as the sequence (P13569 whole entry T1142A) above, with M348K, A1142T counted along it

**Q.** With `O=C(O)c1ccc(/C=C2\SC(=S)N(c3cccc(C(F)(F)F)c3)C2=O)cc1` [Inh-172, CFTRinh-172] as the molecule, how does the “percent inhibition of current, individual cell” value (“percent inhibition of current” below) ([1]; 100 nM Inh-172) read?
**A.** The value was 10.0 and 17.0 and 1.0 and 23.0.

**Q.** And the inhibition at 0.1 µM [1, 5]?
**A.** Its inhibition at 0.1 µM is 12.8%.

**Q.** And the “percent inhibition of current” value ([1]; 250 nM Inh-172)?
**A.** Its value is 31.0 and 36.0 and 35.0.

**Q.** What about the inhibition at 0.25 µM ([1]; 250 nM Inh-172, read-out: percent inhibition of current, Mean) of the same molecule?
**A.** The inhibition at 0.25 µM was 35.3%.

**Q.** And the inhibition at 0.25 µM ([1]; 250 nM Inh-172, read-out: percent inhibition of current, individual cell)?
**A.** The inhibition at 0.25 µM was 39%.

**Q.** And the “percent inhibition of current” value ([1]; 500 nM Inh-172)?
**A.** The value was 50.0 and 41.0 and 62.0 and 56.0 and 63.0.

**Q.** What about the inhibition at 0.5 µM [1, 6] of the same molecule?
**A.** Its inhibition at 0.5 µM is 54.4%.

**Q.** And the “percent inhibition of current” value ([1]; 1000 nM Inh-172)?
**A.** The value was 61.0 and 64.0 and 60.0.

**Q.** And the inhibition at 1 µM [1, 7]?
**A.** Its inhibition at 1 µM is 64.2%.

**Q.** And the inhibition at 1 µM ([1]; 1000 nM Inh-172, read-out: percent inhibition of current, individual cell)?
**A.** Its inhibition at 1 µM is 68%.

**Q.** What about the “percent inhibition of current” value ([1]; 5000 nM Inh-172) of the same molecule?
**A.** Its value is 94.0 and 84.0 and 81.0.

**Q.** What about the inhibition at 5 µM [1, 8] of the same molecule?
**A.** The inhibition at 5 µM was 86.6%.

**Q.** What about the inhibition at 5 µM [1, 9] of the same molecule?
**A.** The inhibition at 5 µM was 90%.

**Q.** What about the “percent inhibition of current” value ([1]; 10000 nM Inh-172) of the same molecule?
**A.** Its value is 89.0 and 83.0.

**Q.** What about the inhibition at 10 µM [1, 10] of the same molecule?
**A.** Its inhibition at 10 µM is 88%.

**Q.** And the inhibition at 10 µM [1, 11]?
**A.** Its inhibition at 10 µM is 92%.

**Q.** And the “Hill Coefficient” value ([1]; M348K)?
**A.** Its value is 0.90 ± 0.10.

**Q.** What about the IC50 ([1]; M348K) of the same molecule?
**A.** The IC50 was 520 ± 60 nM.

**Q.** What about the “percent inhibition of current” value ([2]; 100 nM Inh-172) of the same molecule?
**A.** Its value is 28.0 and 24.0 and 52.0 and 14.0 and 42.0.

**Q.** And the inhibition at 0.1 µM [2, 5]?
**A.** The inhibition at 0.1 µM was 31.3%.

**Q.** What about the “percent inhibition of current” value ([2]; 500 nM Inh-172) of the same molecule?
**A.** The value was 61.0 and 67.0 and 78.0 and 44.0 and 66.0.

**Q.** What about the inhibition at 0.5 µM [2, 6] of the same molecule?
**A.** The inhibition at 0.5 µM was 63.2%.

**Q.** What about the “percent inhibition of current” value ([2]; 1000 nM Inh-172) of the same molecule?
**A.** Its value is 74.0 and 70.0 and 87.0 and 60.0 and 78.0.

**Q.** What about the inhibition at 1 µM [2, 7] of the same molecule?
**A.** Its inhibition at 1 µM is 73.8%.

**Q.** What about the “percent inhibition of current” value ([2]; 5000 nM Inh-172) of the same molecule?
**A.** Its value is 93.0 and 96.0 and 84.0.

**Q.** And the inhibition at 5 µM [2, 8]?
**A.** The inhibition at 5 µM was 91.2%.

**Q.** And the inhibition at 5 µM [2, 9]?
**A.** The inhibition at 5 µM was 90%.

**Q.** And the “percent inhibition of current” value ([2]; 10000 nM Inh-172)?
**A.** The value was 98.0 and 92.0.

**Q.** And the inhibition at 10 µM [2, 10]?
**A.** The inhibition at 10 µM was 96.2%.

**Q.** And the inhibition at 10 µM [2, 11]?
**A.** Its inhibition at 10 µM is 97%.

**Q.** What about the “Hill Coefficient” value ([2]; T1142A) of the same molecule?
**A.** Its value is 0.81 ± 0.02.

**Q.** What about the IC50 ([2]; T1142A) of the same molecule?
**A.** Its IC50 is 270 ± 10 nM.

**Q.** What about the inhibition at 0.1 µM [3, 5] of the same molecule?
**A.** Its inhibition at 0.1 µM is 10.8%.

**Q.** What about the inhibition at 0.5 µM [3, 12] of the same molecule?
**A.** Its inhibition at 0.5 µM is 38%.

**Q.** And the inhibition at 0.5 µM [3, 13]?
**A.** The inhibition at 0.5 µM was 29%.

**Q.** And the inhibition at 1 µM [3, 7]?
**A.** The inhibition at 1 µM was 54%.

**Q.** And the inhibition at 5 µM [3, 12]?
**A.** The inhibition at 5 µM was 82%.

**Q.** And the inhibition at 5 µM [3, 13]?
**A.** Its inhibition at 5 µM is 77%.

**Q.** And the inhibition at 10 µM [3, 12]?
**A.** Its inhibition at 10 µM is 91.4%.

**Q.** And the inhibition at 10 µM [3, 13]?
**A.** Its inhibition at 10 µM is 88%.

**Q.** What about the “Hill Coefficient” value ([3]; W1145Y) of the same molecule?
**A.** The value was 0.92 ± 0.03.

**Q.** And the IC50 ([3]; W1145Y)?
**A.** The IC50 was 870 ± 30 nM.

**Q.** What about the inhibition at 0.025 µM ([4]; 25 nM Inh-172, read-out: percent inhibition of current, Mean) of the same molecule?
**A.** The inhibition at 0.025 µM was 27.2%.

**Q.** What about the inhibition at 0.05 µM [4, 12] of the same molecule?
**A.** Its inhibition at 0.05 µM is 33.5%.

**Q.** And the inhibition at 0.05 µM [4, 13]?
**A.** The inhibition at 0.05 µM was 28%.

**Q.** What about the inhibition at 0.1 µM [4, 12] of the same molecule?
**A.** The inhibition at 0.1 µM was 60.2%.

**Q.** And the inhibition at 0.1 µM [4, 13]?
**A.** The inhibition at 0.1 µM was 53%.

**Q.** What about the inhibition at 0.5 µM ([4]; 0.5 µM Inh-172, read-out: WT-CFTR current inhibited) of the same molecule?
**A.** The inhibition at 0.5 µM was 80%.

**Q.** And the inhibition at 0.5 µM [4, 6]?
**A.** The inhibition at 0.5 µM was 81%.

**Q.** What about the inhibition at 0.5 µM ([4]; 500 nM Inh-172, read-out: percent inhibition of current, individual cell) of the same molecule?
**A.** The inhibition at 0.5 µM was 75%.

**Q.** What about the inhibition at 1 µM [4, 12] of the same molecule?
**A.** Its inhibition at 1 µM is 91.4%.

**Q.** What about the inhibition at 1 µM [4, 13] of the same molecule?
**A.** Its inhibition at 1 µM is 88%.

**Q.** What about the inhibition at 10 µM [4, 11] of the same molecule?
**A.** The inhibition at 10 µM was 89%.

**Q.** What about the “Hill Coefficient” value ([4]; Human WT) of the same molecule?
**A.** The value was 0.88 ± 0.09.

**Q.** What about the “Hill Coefficient” value ([4]; Human WT + 200 nM VX-770) of the same molecule?
**A.** The value was 1.07 ± 0.10.

**Q.** And the IC50 ([4]; Human WT + 200 nM VX-770)?
**A.** Its IC50 is 250 ± 20 nM.

**Q.** And the “Hill Coefficient” value ([4]; Human WT + 1 µM VX-770)?
**A.** Its value is 0.98 ± 0.02.

**Q.** What about the IC50 ([4]; Human WT + 1 µM VX-770) of the same molecule?
**A.** The IC50 was 420 ± 10 nM.

**Q.** What about the IC50 ([4]; Human WT, inside-out patch, -30 mV, 2 mM ATP, Hill fit) of the same molecule?
**A.** Its IC50 is 80 ± 10 nM.

**Q.** What about the IC50 ([4]; human CFTR, value of earlier manuscript version quoted in peer review file) of the same molecule?
**A.** The IC50 was 83 nM.
